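Results reflect a 48-hour exposure of cells in 96-well plates to compound at five concentrations. The concentration for 50% growth inhibition is given as GI50. TGI is the concentration that stops growth completely.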
Legend:
Assay in all cases: NCI tumour cell line growth inhibition, 48 h
U251 CNS = system: U251 CNS
SR leukemia = system: SR leukemia
SK-MEL-5 melanoma = system: SK-MEL-5 melanoma
HCC-2998 colon = system: HCC-2998 colon
HT29 colon = system: HT29 colon
BT-549 breast = system: BT-549 breast
HOP-62 NSCLC = system: HOP-62 NSCLC
NCI-H522 lung = system: NCI-H522 lung
A549 NSCLC = system: A549 NSCLC
MDA-MB-231 breast = system: MDA-MB-231 breast

SMILES	TGI (U251 CNS) [µM]	TGI (SR leukemia) [µM]	TGI (SK-MEL-5 melanoma) [µM]	TGI (HCC-2998 colon) [µM]	TGI (HT29 colon) [µM]	TGI (BT-549 breast) [µM]	TGI (HOP-62 NSCLC) [µM]	TGI (NCI-H522 lung) [µM]	TGI (A549 NSCLC) [µM]	TGI (MDA-MB-231 breast) [µM]	GI50 (U251 CNS) [µM]	GI50 (SR leukemia) [µM]	GI50 (SK-MEL-5 melanoma) [µM]	GI50 (HCC-2998 colon) [µM]	GI50 (HT29 colon) [µM]	GI50 (BT-549 breast) [µM]	GI50 (HOP-62 NSCLC) [µM]	GI50 (NCI-H522 lung) [µM]	GI50 (A549 NSCLC) [µM]	GI50 (MDA-MB-231 breast) [µM]
CC(C)(CN)CN	> 100	> 100	> 100	> 100	> 100	> 100	> 100	> 100	> 100	> 100										
CCNC(=O)Nc1cccc(C)n1	> 100	> 100	> 100	> 100	> 100	> 100	> 100	> 100	> 100	> 100										
c1ccc(CNc2c3c(nc4ccccc24)CCC3)cc1	30.4	38.9	24.4	26.5	50.1	37.1	25.6	39.3	38.9	27.1										
CCOC(C[Se]CC(OCC)OCC)OCC	38.4	> 100	29.6	> 100	> 100	94		> 100	> 100	> 100										
CCCCOC(=O)C(=O)C(CCC(=O)c1ccc(C)cc1)C(=O)C=C(C)C (centres undefined)	> 100	> 100	> 100	> 100	> 100	> 100	> 100	> 100	> 100	> 100										
COc1ccc2nc3cc(Cl)ccc3c(NCCCCCC(=O)NC(COc3cnc4c(ccc5cccnc54)c3)COc3cnc4c(ccc5cccnc54)c3)c2c1	21.8	11.7		27.9	> 100	24.1	35.8	> 100	> 100	44										
COc1cc2c(cc1C[N+](C)(C)CSc1ccccc1)-c1ccccc1CC2	27.8	7.55	2.39	13.6	13.1	15.5	27.1	10.7	45.8	10										
O=C(Nc1sccc1S(=O)(=O)c1ccccc1)c1cccnc1	> 100	> 100	> 26.3	> 100	> 100	> 86.1	> 100	> 85.4	> 100	> 100										
Cn1c(=O)c2c(nc(NCCCCl)n2CC(=O)O)n(C)c1=O	> 100	> 100	> 100	> 100	> 100	> 100	> 100	> 100	> 100	> 100										
COC(=O)/C=C/c1ccccc1N=[S@](C)(=O)c1ccc(C)cc1	51	26.7	38.3	50.1	> 100	> 100	> 100	7.99	> 100	94.4										
c1ccc2c(-c3cnc(-c4c[nH]c5ccccc45)cn3)c[nH]c2c1	> 100	> 100	> 100	> 100		> 100	> 100	64.2	> 100	> 100										
COc1ccc2c(c1)OC(c1cccnc1)C(c1ccccc1)C2=O (centres undefined)	> 100	> 100	> 100	> 100	> 100	> 100	> 100	> 100	> 100	> 100										
COc1cc(-c2nc3cc(F)ccc3s2)ccc1O	> 100	75.7	> 100	55.5	> 100	> 100		78.4	> 100	> 100										
COc1cccc(N2C(=O)C3c4[nH]c5ccccc5c4C4c5ccccc5CCC4C3C2=O)c1 (centres undefined)	> 8.12	> 4.01	> 10	> 10	> 10	> 10	6.81	> 10	> 10	> 10										
CCC(C)[C@H](NC(=O)N[C@H](C)c1ccccc1)C(=O)OC (some centres undefined)	> 100	> 100	> 100	> 100	> 100	> 100	> 100		> 100	> 100										
CSc1nc(NC2CCCC2)c2cc[nH]c2n1	> 100	61.6	96.6	> 100	> 100	> 100	> 100	> 100	> 100	> 100										
COc1ccc(N2C=Nn3c(nc4sc(C)c(C)c4c3=O)C2)cc1	> 100	> 100	> 100	> 100	> 100	> 100	> 100	> 100	> 100	> 100										
Cn1ccnc1Sc1ccc(/C=N/NC(=O)c2ccccc2O)cc1[N+](=O)[O-]	> 100	> 100	> 100	> 100	> 100	> 100	> 100	> 100	> 100	> 100										
CCN(CC)Cc1nc2sc3c(c2c(=O)n1-c1ccccc1)CCCC3	31.3	> 100	31.7	33.6	29.3	53.6	86.7	44.9	55	30.4										
CC(=O)O[C@H]1CC[C@@]2(C)C(=CC[C@@H]3[C@@H]2CC[C@]2(C)C(c4cccnc4)=CC[C@@H]32)C1	> 100	8.35	10.1	> 100	12.7	17.3	> 100	> 100	> 100	33.7	4.47	3.01	2.89	14	3.07	2.96	6.24	38.5	10.4	5.23
CCCC/C=C1\CCC(CN2CCCCC2)C1=O (centres undefined)	44.1	> 24.7	42.6	22.6	23.7	> 100	49.4		52.9	> 100										

— PubChem BioAssay (NCI)
